Measurements taken from US20220120732A1, “TREATMENT OF DISEASES WITH MULTIMERIC PEPTIDES” (Ramot at Tel-Aviv University Ltd., priority 2019, published 2022).
Bridges are numbered along the chain shown (N, C = ends). Roman numbers before positions name the chains, in order. Where no end group is shown, it is not given here.

System: normal stroma cells
Assay: Cell density, patient-derived stromal cells with autologous PBMC and C24D
Type: cell-based, human
Settings: autologous PBMCs + C24D; FIGS. 5A-B
Text: Patient-derived tumor primary culture medium: Medium D: DMEM/F12 (1:1, v/v) supplemented with 10% FBS and 1% antibiotics/antimycotic (100×. Medium M: Medium 171 supplemented with 1% MEGS (100×), and 1% antibiotics/antimycotics. Medium DB: mixed from medium D and medium M (1:1, v/v).
Tumor biopsies, all from different patients, were collected after obtaining the patients' consent and were transported to the laboratory. Excess adipose tissue was pared off the tumor samples, following which the samples were sliced into small fragments (approximately 1-2 mm^2) by using a scalpel. The fragments were seeded per 10 cm^2 Petri dishes in DB medium. The Petri dishes were incubated at 37° C. with 5% CO2 and monitored daily to record the time of cell appearance and the cell morphology. The medium was replaced every 3 days. Approximately two weeks after primary culture incubation, cells were trypsinized and cultured in Petri dishes according to the below protocol.
Day 1: 4×10^5 tumor cells from the cell line or tumor and stroma cells derived from patient's biopsies were incubated in the respective growth medium in 6 well plates overnight or Petri dishes. Day 2: 3 hours prior to addition of PBMC of healthy female donors or from autologous patients, DMEM medium was changed to RPMI medium. […]

I: CGHHLLRPRRRKRPHSIPTPILIFRSP / II: CGHHLLRPRRRKRPHSIPTPILIFRSP (disulfide I:1-II:1) [C24D]
effect on normal stroma cells of the same patient: no effect
